The source of these data is US20240287121A1, “GALECTIN-3 INHIBITING C-GLYCOSIDE OXIMES” (GLYCOMIMETICS, INC., priority 2021, published 2024).

T1 sequence (P17931 whole entry): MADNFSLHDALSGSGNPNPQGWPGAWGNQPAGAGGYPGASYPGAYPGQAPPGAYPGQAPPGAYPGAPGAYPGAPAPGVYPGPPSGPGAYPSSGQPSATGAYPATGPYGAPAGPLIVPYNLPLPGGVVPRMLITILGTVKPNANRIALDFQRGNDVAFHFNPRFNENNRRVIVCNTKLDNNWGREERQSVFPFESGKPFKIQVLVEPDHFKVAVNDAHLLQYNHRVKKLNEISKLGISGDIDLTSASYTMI

The test has as its target T1, galectin-3 (Homo sapiens, UniProt P17931).
T1 construct: purchased IBL IBATGPO414
The experiment in a line: Galectin-3 Activity ELISA assay: inhibition of binding of galectin-3 to immobilized Galβ1-3GlcNAc polymer. The conditions noted are these: competitive ELISA; Galβ1-3GlcNAc polymer on streptavidin plate; A450 readout; read-out: Galectin-3 Antagonist Activity IC50. The source says:
An inhibition assay may be used to screen for antagonists of galectin-3. For example, an assay may be performed to characterize the capability of a compound described herein to inhibit interaction of galectin-3 with a Galβ1-3GlcNAc carbohydrate structure. The inhibition assay may be a competitive binding assay, which allows the determination of IC50 values. By way of example, a Galβ1-3GlcNAc polymer may be immobilized onto a matrix; a composition may be added to reduce nonspecific binding; the immobilized Galβ1-3GlcNAc polymer may be contacted with the candidate compound in the presence of galectin-3 group under conditions and for a time sufficient to permit galectin-3 to bind to the immobilized Galβ1-3GlcNAc polymer; the immobilized Galβ1-3GlcNAc polymer may be washed; and the amount of galectin-3 bound to the immobilized Galβ1-3GlcNAc polymer may be detected. Variations of such steps can be readily and routinely accomplished by a person of ordinary skill in the art.
Galectin-3 antagonists were evaluated for their ability to inhibit binding of galectin-3 to a Galβ1-3GlcNAc carbohydrate structure. The detailed protocol was as follows. A 1 μg/mL suspension of a Galβ1-3GlcNAcβ-3Galβ1-4GlcNAcβ-PAA-biotin polymer (Glycotech, catalog number 01-096) was prepared. A 100 μL aliquot of the polymer was added to the wells of a 96-well streptavidin-coated plate (R&D Systems, catalog number CP004). A 100 μL aliquot of 1× Tris Buffered Saline (TBS, Sigma, catalog number T5912-10×) was added to control wells. The polymer was allowed to bind to the streptavidin-coated wells for 1.5 hours at room temperature. The contents of the wells were discarded and 200 μL of 1×TBS containing 1% bovine serum albumin (BSA) was added to each well as a blocking reagent, and the plate was kept at room temperature for 30 minutes. The wells were washed three times with 1×TBS containing 0.1% BSA. A serial dilution of test compounds was prepared in a separate V-bottom plate (Corning, catalog number 3897). A 75 μL aliquot of the highest concentration of the compound to be tested was added to the first well in a column of the V-bottom plate, then 15 μl were serially transferred into 60 μL 1×TBS through the remaining wells in the column to generate a 1 to 5 serial dilution. A 60 μL aliquot of 2 ug/mL galectin-3 (IBL, catalog number IBATGPO414) was added to each well in the V-bottom plate. A 100 μL aliquot of the galectin-3/test compound mixture was transferred from the V-bottom plate into the assay plate containing the Galβ1-3GlcNAc polymer. Four sets of control wells in the assay plate were prepared in duplicate containing 1) both Galβ1-3GlcNAc polymer and galectin-3, 2) neither the polymer nor galectin-3, 3) galectin-3 only, no polymer, or 4) polymer only, no galectin-3. The plate was gently rocked for 1.5 hours at room temperature. The wells were washed four times with TBS/0.1% BSA. A 100 μL aliquot of anti-galectin-3 antibody conjugated to horse radish peroxidase (R&D Systems, from DGAL30 kit) was added to each well and the plate was kept at room temperature for 1 hour. The wells were washed four times with TBS/0.1% BSA. A 100 μL aliquot of TMB substrate solution was added to each well. The TMB substrate solution was prepared by making a 1:1 mixture of TMB Peroxidase Substrate (KPL, catalog number 5120-0048) and Peroxidase Substrate Solution B (KPL, catalog number 5120-0037). The plate was kept at room temperature for 10 to 20 minutes. The color development was stopped by adding 100 μL 10% phosphoric acid (RICCA Chemical Co., catalog number 5850-16). The absorbance at 450 nm (A450) was measured using a FlexStation 3 plate reader (Molecular Devices). Plots of A450 versus test compound concentration and IC50 determinations were made using GraphPad Prism 6.
On the technique in general: ELISA stands for enzyme-linked immunosorbent assay.
As usually defined, the IC50 is the concentration that gives 50% inhibition. `[2H]C([2H])([2H])OC1C(n2cc(-c3cc(F)c(F)c(F)c3)nn2)[C@@H](O)C(CO)O[C@H]1[C@H](OCc1ccc(Cl)cc1)C(C)=NOCC1CC1` (stereo partly shown) [Compound 37]: the IC50 came to 10.6 µM.

Take `CCC(=NOCC1CC1)[C@@H](OCc1ccc(Cl)cc1)[C@@H]1OC(CO)[C@H](O)C(n2cc(-c3cc(F)c(F)c(F)c3)nn2)C1O` (stereo partly shown) [Compound 41]: the half-inhibitory concentration (IC50) is 2.8 µM. Regarding `CCC(=NOC)[C@@H](OCc1ccc(Cl)cc1)[C@@H]1OC(CO)[C@H](O)C(n2cc(-c3cc(F)c(F)c(F)c3)nn2)C1O` (stereo partly shown) [Compound 34], the IC50 was determined as 0.5 µM. Take `[2H]C([2H])([2H])OC1C(n2cc(-c3cc(F)cc(F)c3)nn2)[C@@H](O)C(CO)O[C@H]1[C@H](OCc1ccc(Cl)cc1)/C(=N/OC)C([2H])([2H])C([2H])([2H])[2H]` (stereo partly shown) [Compound 35]: the IC50 is 6.9 µM.

In the case of `[2H]C([2H])([2H])OC1C(n2cc(-c3cc(F)c(F)c(F)c3)nn2)[C@@H](O)C(CO)O[C@H]1[C@H](OCc1ccc(Cl)cc1)C(C)=NOCC` (stereo partly shown) [Compound 36], the IC50 was 10.3 µM. Take `[2H]C([2H])([2H])OC1C(n2cc(-c3cc(F)c(F)c(F)c3)nn2)[C@@H](O)C(CO)O[C@H]1[C@H](OCc1ccc(Cl)cc1)C(C)=NOCC(C)C` (stereo partly shown) [Compound 38]: the IC50 amounted to 16.7 µM. Regarding `CCON=C(CC)C(OCc1ccc(Cl)cc1)C1OC(CO)C(O)C(n2cc(-c3cc(F)c(F)c(F)c3)nn2)C1O` (stereo not shown) [Compound 40], the IC50 amounted to 0.9 µM.
